From patent publication EP1311486B1, “USES OF THALIPORPHINE OR ITS DERIVATIVES IN TREATMENT OF CARDIAC DISEASES AND PREPARATION OF SAME” (Lotus Pharmaceutical Co., Ltd., priority 2000, dated 2002)

Key:
[1] = test system: rats subjected to 4 hours coronary ligation; experiment: Area at risk and infarct size after 4 hours coronary ligation (triphenyl tetrazolium chloride-Evan's blue staining); assay type: in vivo, rat; conditions: L-NAME 1x10^-3 g/kg
Procedure: Infarct size was determined by the triphenyl tetrazolium chloride-Evan's blue staining technique. The rat was sacrificed after its left descending coronary artery had been occluded for 4 hours. The weight of infarct tissue was expressed as a percentage of total ventricular weight or occluded zone. The difference in infarct size was statistically analyzed using unpaired Student's t-test. Table 4 Area at risk and infarct size in vehicle and THP-treated rats subjected to 4 hours coronary ligation
The difference in ischemic area and infarct size shown by staining technique after 4 hours of ischemia is evaluated. […] In the vehicle group, the necrotic area expresses either as a percentage of the area at risk (45.2±1.0%) or as a percentage of the total ventricle (19.8±2.2%), indicating the amount of cardiac tissue at risk becomes necrotic. Administration of THP reduces myocardial necrosis extension in a dose dependent manner. This reduction is observed either in the necrotic area/area at risk (38.1±5.0%, 29.0±2.5% and 10.7±1.8%/with 3.5x10^-7, 10^-6, 10^-5 g/kg of THP, respectively) or in the necrotic area/total ventricle (17.9+2.3%, 13.4±1.2% and 5.0±0.9% with 3.5x10^-7, 10^-6, 10^-5 g/kg of THP, respectively).

AV node conduction = experiment: His bundle electrogram of isolated heart, Langendorff perfusion, atrial pacing at 300 ms cycle length; parameters: species or system rats and guinea pigs; conditions: for atrial effective refractory period (AERP): before drug THP 60 ms, quinidine 40 ms; for ventricular effective refractory period (VERP): before drug THP 160 ms, quinidine 180 ms; for AV node effective refractory period (AVNERP): before drug THP 170 ms, quinidine 130 ms; for wenckbach cycle length (WCL): before drug THP 200 ms, quinidine 150 ms
Procedure: The investigation conforms to the Guide for the Care and Use of Laboratory Animals published by the US National Institutes of Health (NIH publication No. 85-23, revised 1996). Adult rats and guinea pigs were killed after hepariniation and anesthetization with urethane (1.25 g/kg i.p.). After isolating the heart, the aorta was perfused with 10µM quinidine and THP, respectively, by Langendorff perfusion. A pair of bipolar electrodes connected with silver wire were placed on the tip of the Triangle of Koch to record the His bundle electrogram. In addition, another pair of bipolar electrodes connected with silver wire were placed on the surface of the right ventricle to record T wave. […] The QT interval, conduction time through the sinoatrial (SA interval), the atrioventricular node (AH interval) and His-purkinje system (HV interval) were recorded, respectively, using electrocardiograph. Similarly, the recovery curve of His-purkinje system (i.e. the relationship of H2V2 and V1H2), atrial and ventricular refractory period and AV node refractory period were also recorded in the same manner. 1 and 2.
The SA, AH, HV intervals and T wave are prolonged in the quinidine-treated heart (FIG. 1). […] In addition, 3, 10 and 30µM THP can prolong the atrial effective refractory period (AERP) from 60 ms to 90, 100 and 120 ms, respectively; the ventricular effective refractory period (VERP) from 160 ms to 160, 170 and 190 ms, respectively; and the AV node effective refractory period (AVNERP) from 170 ms to 170, 200 and 240 ms, respectively. When compared with THP in the same manner, 3,10 and 30µM quinidine can prolong the AERP from 40 ms to 60, 80 and 130 ms; the VERP from 180 ms to 170, 180 and 190 ms; and the AVNERP from 130 ms to 150, 200 and 245 ms, respectively. Further, 3, 10 and 30µM THP can change the wenckbach cycle length (WCL) from 200 ms to 210, 230 and 280 ms, respectively; whereas 3, 10 and 30µM quinidine can change the WCL from 150 ms to 170, 210 and 300 ms, respectively. Both THP and quinidine prolong AERP, VERP and AVNERP, however, only quinidine inhibits conduction in AV node (prolonged AH interval). In contrast, even when the THP concentration raised to 10µM, the conduction in AV node is not inhibited.

[2] = test system: guinea pig right ventricular strips; experiment: Ouabain-induced arrhythmia in electrically driven right ventricular strips; conditions: 10-20µM after 0.6-0.8µM ouabain
Procedure: The arrhythmia was then induced 5-10 minutes after. 10-20µM THP or its derivatives were administered to reverse the ouabain-induced arrhythmia. 6-7.
Referring to FIGs. […] The arrhythmia is then induced 5-10 minutes after.

Row | Compound | Area at risk (% of ventricle) [1] | Necrotic (% of Area at risk) [1] | Necrotic (% of ventricle) [1] | atrial effective refractory period (AERP) (AV node conduction; 3µM) [ms] | ventricular effective refractory period (VERP) (AV node conduction; 3µM) [ms] | AV node effective refractory period (AVNERP) (AV node conduction; 3µM) [ms] | wenckbach cycle length (WCL) (AV node conduction; 3µM) [ms] | AH interval (conduction in AV node) (AV node conduction; 10µM, isolated perfused heart) | HV interval (AV node conduction; 10µM, isolated perfused heart) | SA interval (AV node conduction; 10µM, isolated perfused heart) | T wave (AV node conduction; 10µM, isolated perfused heart) | atrial effective refractory period (AERP) (AV node conduction; 10µM) [ms] | ventricular effective refractory period (VERP) (AV node conduction; 10µM) [ms] | AV node effective refractory period (AVNERP) (AV node conduction; 10µM) [ms] | wenckbach cycle length (WCL) (AV node conduction; 10µM) [ms] | atrial effective refractory period (AERP) (AV node conduction; 30µM) [ms] | ventricular effective refractory period (VERP) (AV node conduction; 30µM) [ms] | AV node effective refractory period (AVNERP) (AV node conduction; 30µM) [ms] | wenckbach cycle length (WCL) (AV node conduction; 30µM) [ms] | reversal of ouabain-induced arrhythmia [2]
1 | COC(=O)[C@@H](N)CCCNC(=N)N[N+](=O)[O-] [L-NAME, N^∞-nitro-L-arginine methyl ester, reference compound] | 47.5±0.2 % of ventricle | 45.1±7.2 % of Area at risk | 21.4±3.5 % of ventricle | – | – | – | – | – | – | – | – | – | – | – | – | – | – | – | – | –
2 | C=C[C@H]1C[N@@]2CC[C@H]1C[C@@H]2[C@@H](O)c1ccnc2ccc(OC)cc12 [quinidine] | – | – | – | 60 | 170 | 150 | 170 | prolonged | prolonged | prolonged | prolonged | 80 | 180 | 200 | 210 | 130 | 190 | 245 | 300 | does not reveal the efficacy
